According to patent US7381540B2, “Composition for measuring glucose having improved substrate specificity” (Toyo Boseki Kabushiki Kaisha, priority 2005, dated 2008):

What was measured:
modified PQQGDH [1] = test: Substrate specificity using glucose assay system (ferricyanide reduction, absorbance 420 nm); assay type: biochemical
Experimental: D-glucose+ferricyanide ion+PQQGDH D-glucono-1,5-lactone+ferrocyanide ion
Specificity to each substrate can be determined by changing D-glucose to other saccharides. The presence of the ferrocyanide ion produced by reduction of the ferricyanide ion was confirmed by measuring the decrease of absorbance at a wavelength of 420 nm by spectrophotometry.
A. […]
B. Potassium ferricyanide solution: 50 mM (0.165 g potassium ferricyanide (molecular weight: 329.25) dissolved in 10 ml of distilled water)
C. PQQGDH solution: 31000 U/ml (approx. 128 mg PQQGDH (Toyobo: GLD-331) dissolved in 5 ml of distilled water)
D. Substrate solution (D-glucose solution or maltose solution): 100 or 400 mM
• 1. The following reaction mixture was prepared in a light shielding bottle, and stored on ice (prepared at use). 48.2 mL of each buffer solution (pH6.5) (A) • 4.0 mL of potassium ferricyanide solution (B) • 0.19 mL of (C) • 2. 2.65 ml of the reaction mixture and 0.3 ml of additive were placed in a test tube (plastic) and pre-warmed for 5 minutes at 37° C. • 3. 0.15 ml of substrate solution (D) were added and mixed gently. • 4. The reduction in the absorbance relative to water at 420 nm was recorded for 1 to 3 minutes with a spectrophotometer while maintaining at a temperature of 37° C., and the ΔOD per minute was calculated from the initial linear portion of the curve (ΔOD test). At the same time, the same procedure was carried out with the exception of adding distilled water instead of glucose solution followed by measurement of the blank (ΔOD blank).
The above-mentioned procedure was carried out at each of the predetermined concentrations shown in Tables 1 to 3 using as additives succinic acid, adipic acid, suberic acid, pimeric acid, potassium chloride, ammonium chloride, diammonium hydrogen citrate, malonic acid, L-lysine, taurine, 3,3-dimethylglutaric acid, malic acid, glutaric acid, calcium glycerate, amino-n-butyric acid, sodium glycolate, sodium α-ketoglutarate, fumaric acid, glycerin, glutamic acid and serine. And the procedure was also carried out for those not containing additives to assess the effects of additives.
Variation in absorbance per unit time was determined by calculating ΔOD/min(ΔOD test−ΔOD blank)
To evaluate whether activity had declined with respect to sugars other than glucose, the ΔOD/min (a) with D-glucose as the substrate solution and the ΔOD/min (b) with the other sugar in place of D-glucose as the substrate solution were measured, and the relative value ((b)/(a)×100) was calculated given 100 as the measurement value with glucose as the substrate.
In each of Tables 3 to 5, in the case the value of the ratio of measured values of maltose and glucose (maltose/glucose) relative to the control (control: no addition) is small, activity with respect to maltose during glucose measurement decreases.

modified PQQGDH [2] = test: as above; assay type: biochemical; conditions: potassium phosphate buffer pH 7.0
modified PQQGDH [3] = test: Maltose activity of glucose electrode loaded with modified PQQGDH (oxidation current, potassium ferricyanide mediator); assay type: biochemical, Acinetobacter baumannii strain NCIMB11517; conditions: for Maltose Activity (%): solute 50 mM, pH 5.5, glucose or maltose 4 mM, 0.1 M potassium ferricyanide, +0.35 V, 25° C.; for Maltose Activity of Glucose Electrode: 50 mM solvent, 1 mM calcium chloride, 0.1% Triton X-100
Experimental: 0.5 g of carbon graphite were placed in a mortar followed by the addition of 0.3 ml of liquid paraffin and kneading with a pestle for 30 minutes to produce a carbon paste. The resulting carbon paste was spread onto a platinum electrode followed by the addition of 10 μl of the modified PQQGDH solution (2,000 U/ml) produced in Example 2 and air drying for 30 minutes at room temperature. A cut cellulose semi-permeable membrane (molecular weight: 8,000) was placed over the dried enzyme electrode and the semi-permeable membrane was immobilized with plastic O-rings. The glucose electrode produced in this manner was then used after preliminarily immersing in the cold reaction solvent for 30 minutes.
The substances listed in Table 1 were used as solutes, and buffers were respectively prepared having a final concentration of 50 mM (pH 5.5). Each of the solvents contained an activator/stabilizer in the form of calcium chloride at 1 mM and surfactant in the form of 0.1% Triton X-100 in addition to the solute listed in Table 1. Potassium ferricyanide was dissolved in each of the produced solvents to a concentration of 0.1 M to prepare reaction solutions.
50 mM phosphoric acid or pimeric acid solution containing 1 mM calcium chloride and 0.1% Triton X-100 (consisting of three types having pH values of 5.0, 6.0 and 7.0, respectively) were prepared. Maltose activity of the glucose electrode was investigated for each according to the method of Example 5.

[4] = glutaric acid buffer pH 7.0, reagent 1%, substrate 4.8 mM, control 0.86
[5] = glutaric acid buffer pH 7.0, reagent 1%, substrate 19.2 mM, control 0.94
[6] = phthalic acid buffer pH 7.0, reagent 0.5%, substrate 4.8 mM, control 0.72
[7] = phthalic acid buffer pH 7.0, reagent 0.5%, substrate 19.2 mM, control 0.75
[8] = phthalic acid buffer pH 7.0, reagent 1%, substrate 4.8 mM, control 0.72
[9] = phthalic acid buffer pH 7.0, reagent 1%, substrate 19.2 mM, control 0.75
[10] = phthalic acid buffer pH 7.0, reagent 2%, substrate 4.8 mM, control 0.72
[11] = phthalic acid buffer pH 7.0, reagent 2%, substrate 19.2 mM, control 0.75

| Compound | Maltose/glucose ratio (modified PQQGDH [1]; [4]) | Maltose/glucose ratio (modified PQQGDH [1]; [5]) | Maltose/glucose ratio (modified PQQGDH [1]; [6]) | Maltose/glucose ratio (modified PQQGDH [1]; [7]) | Maltose/glucose ratio (modified PQQGDH [1]; [8]) | Maltose/glucose ratio (modified PQQGDH [1]; [9]) | Maltose/glucose ratio (modified PQQGDH [1]; [10]) | Maltose/glucose ratio (modified PQQGDH [1]; [11]) | Maltose Activity (%) (modified PQQGDH [3]) | other results |
| --- | --- | --- | --- | --- | --- | --- | --- | --- | --- | --- |
| NCC(=O)O [Glycine] | 0.76 | 0.93 |  |  |  |  |  |  |  |  |
| CC[C@H](N)C(=O)O [L-2-amino-n-butyric acid] | 0.76 | 0.92 |  |  |  |  |  |  |  |  |
| Cl.NCCCC[C@H](N)C(=O)O [L-lysine hydrochloride] | 0.65 | 0.87 | 0.62 | 0.64 | 0.61 | 0.58 | 0.59 | 0.50 |  | Maltose/glucose ratio (modified PQQGDH [2]; reagent 0.5%, substrate 4.8 mM, control 0.85): 0.78; Maltose/glucose ratio (modified PQQGDH [2]; reagent 1%, substrate 4.8 mM, control 0.85): 0.71; Maltose/glucose ratio (modified PQQGDH [2]; reagent 2%, substrate 4.8 mM, control 0.85): 0.66; Maltose/glucose ratio (modified PQQGDH [2]; reagent 2%, substrate 19.2 mM, control 0.93): 0.85; Maltose/glucose ratio (modified PQQGDH [1]; potassium phosphate buffer pH 7.0, reagent 0.5%, substrate 19.2 mM, control 0.93): 0.91; Maltose/glucose ratio (modified PQQGDH [1]; potassium phosphate buffer pH 7.0, reagent 1%, substrate 19.2 mM, control 0.93): 0.93 |
| N[C@@H](CO)C(=O)O [L-serine] | 0.73 | 0.87 |  |  |  |  |  |  |  |  |
| O=S(=O)(O)CCN1CCOCC1 [MES, reference compound] |  |  |  |  |  |  |  |  | 29.6 |  |
| O=C(O)CC(=O)O [Malonic acid] | 0.68 | 0.84 | 0.74 | 0.58 | 0.77 | 0.57 | 0.82 | 0.63 | 23.2 | activity with respect to maltose compared with the control (in words) (modified PQQGDH [1]; substrate concentration of 4.8 mM, in some cases): did not decrease |
| O=P(O)(O)O [Phosphoric acid, reference compound] |  |  |  |  |  |  |  |  | 28.0 | Maltose Activity of Glucose Electrode (modified PQQGDH [3]; pH 5.0): 23.7%; Maltose Activity of Glucose Electrode (modified PQQGDH [3]; pH 6.0): 36.8%; Maltose Activity of Glucose Electrode (modified PQQGDH [3]; pH 7.0): 50.8% |
| O=C(O)c1ccccc1C(=O)O [Phthalic acid] |  |  |  |  |  |  |  |  | 4.9 |  |
| [Cl-].[K+] [Potassium chloride] |  |  | 0.66 | 0.71 | 0.67 | 0.64 | 0.60 | 0.60 |  |  |
| NCCS(=O)(=O)O [Taurine] | 0.75 | 0.81 | 0.71 | 0.72 | 0.66 | 0.68 | 0.62 | 0.68 |  |  |
| O=C([O-])CO.[Na+] [sodium glycolate] | 0.77 | 0.92 |  |  |  |  |  |  |  |  |
